Results published in patent publication US11369607B2, “Compositions, systems, and methods for generating inner ear hair cells for treatment of hearing loss” (Massachusetts Institute of Technology, priority 2014, dated 2022).
“Also recorded” adds a separate entry of the source.

Experiments:
[1] = test system: Lgr5+ supporting cells isolated from the cochlea; assay: Expansion of Lgr5-GFP inner ear progenitor cells in Matrigel based 3D culture; type: cell-based, mouse; conditions: for Lgr5-GFP expression, effect of addition / cell proliferation, effect of addition: neonatal Lgr5 inner ear progenitor cells; for importance of the factor for cell proliferation / importance of the factor for Lgr5-GFP expression: factor removed from the culture medium; for GFP+ cell number / total number of cells / GFP+ percentage: named factor removed from EFICVP6, 10 days; for use in place of VPA: data not shown
Procedure: Cell culture: Heterozygous Lgr5-EGFP-IRES-CreERT2 mice were obtained from Jackson Labs, and neonatal P2-P5 mice were used for cell isolation. Organ of Corti was isolated from Lgr5-GFP mice and further dissociated into single cells using trypsin. Cells were then cultured as previously described (Yin et al, 2014). Briefly, cells were entrapped in Matrigel and plated at the center of wells in a 24-well plate. Following polymerization of Matrigel, 500 μl of culture media (Advanced DMEM/F12 with N2 and B27) was added, containing growth factors including EGF (50 ng/ml) (epidermal growth factor), bFGF (20 ng/ml) (fibroblast growth factor), and IGF1 (50 ng/ml) (insulin-like growth factor 1), and small molecules including CHIR99021 (5 μM), valproic acid (1 mM), 2-phospho-L-ascorbic acid (280 μM), and 616452 (2 μM). Y-27632 (10 μM) was added for the first 2 days. In some experiments, bFGF was used at 50 ng/ml.
For single cell isolation, the organs of Corti were then treated with Cell Recovery Solution (Corning) for 1 h to separate cochlear epithelium from the underlying mesenchyme. Epithelia were then collected and treated with Trypsin (Life Technologies) for 15-20 minutes at 37° C. Single cells obtained by mechanical trituration were filtered by cell strainer (40 μm) and washed with cell culture media. For FACS sorting of Lgr5-high and Lgr5-Low cells, FACS ARIA (BD) was used and Lgr5-GFP was used as indicator of Lgr5 level. Sorted single cells were cultured in Matrigel in inner ear cell culture media with supplement growth factors and small molecules. Y-27632 was added in the first 2 days.
FACS analysis: Cell culture media was removed and Trypsin was added. After incubation at 37° C. for 10-20 min, colonies were dissociated into single cells. Live-cell number were counted using a hemocytometer and trypan blue staining. The cells were then stained with propidium iodide (PI) and analyzed with flow cytometry. The number of GFP-positive cells was calculated by multiplying the total number of cells by the percentage of GFP-positive cells.

[2] = test system: expanded Lgr5-positive cells; assay: Differentiation of expanded Lgr5-positive cells to hair cells; type: cell-based, mouse; conditions: for effect on differentiation of hair cells: in differentiation media
Procedure: Differentiation protocol: For differentiation of expanded Lgr5-positive cells, following 10 days of culture in the cell expansion condition (EFICVP6), the cell colonies were transferred to fresh Matrigel and further cultured in differentiation media. Differentiation media contains Notch pathway inhibitor (e.g. DAPT, D, 5 μM, or LY411575, LY, 5 μM), with or without Gsk3β inhibitor (e.g. CHIR99021). Media were changed every other day. Following another 6-10 days of incubation with differentiation media, the colonies were harvested for qPCR analysis or fixed with 4% PFA and immunostained with hair cell markers Myo7a and Prestin.
RNA extraction and quantitative real-time PCR (qPCR): RNA was isolated from cultured cells (RNeasy Mini Kit; Qiagen) according to the manufacturer's protocol. Quantitative real-time PCR was performed with QuantiTect Probe PCR kit (Qiagen) using commercially available primers and TaqMan probes (Myo7a and Hprt Life Technologies).
Immunocytochemistry staining: Colonies were fixed at room temperature in 4% paraformaldehyde/PBS for 15-20 min and then washed twice with PBS containing 0.1% BSA. Cells were then permeabilized with 0.25% Triton X-100 in PBS in 4° C. for 30 minutes. Following 2 washes with PBS containing 0.1% BSA, the cells were incubated with blocking solution (Power Block, Biogenex) for 1 h. Diluted primary antibodies (in Power Block solution) was applied for 4 h at room temperature or overnight at 4° C. Primary antibodies used were Myosin VIIA (1:500, Rabbit polyclonal from Proteus Biosciences) and Prestin (1:400, Goat polyclonal from Santa Cruz). After 3 washes for 5 minutes each, secondary antibodies (Alexafluor 594 and 647-conjugated; Invitrogen) were added at 1:500 dilution and incubated at room temperature for 30 minutes. Nuclei were visualized with 4,6-diamidino-2-phenylindole (DAPI, Vector Laboratories). Staining was visualized with inverted fluorescence microscope (EVOS; Advanced Microscopy Group).

patients = conditions: cited from earlier work
[3] = named factor removed, versus EFICVP6

Q: Which “Lgr5-GFP expression, effect of addition” value [1] does the source give for Laminin 511: added into Matrigel here?
A: promotes GFP expression

Q: For `Cc1cccc(-c2n[nH]cc2-c2ccc3ncccc3n2)n1` [compound 616452, 2-(3-(6-Methylpyridin-2-yl)-1H-pyrazol-4-yl)-1,5 napththyridine], which “effect on differentiation of hair cells” value [2] is on record?
A: inhibit the differentiation of hair cells

Q: And the “passage / extended culture of the cells” value [1]?
A: enables the passage of cultured inner ear progenitor cells; also recorded: enables extended culture of the cells

Q: What about the passage of colonies [1] of the same molecule?
A: up to 5 generations

Q: What about the “colony size and GFP intensity” value ([1]; added on EFICVP) of the same molecule?
A: increases the intensity of Lgr5-GFP and the size of colonies; also recorded: tend to grow larger and possess brighter GFP expression than that in control conditions

Q: What about the “importance of the factor for cell proliferation” value [1] of the same molecule?
A: greater impact on cell proliferation; also recorded: significant reduction in proliferation; also recorded: important to promote cell proliferation

Q: And the “GFP+ cell number” value [1]?
A: 9.8×10^4 cells

Q: And the “total number of cells” value [1]?
A: 1.7×10^5 cells

Q: And the “decrease of GFP+ cell number” value [1, 3]?
A: ~3 fold

Q: And the “decrease of total cell number” value [1, 3]?
A: ~3 fold

Q: What about the “Lgr5-GFP expression, effect of addition” value [1] of the same molecule?
A: does not promote the expression of Lgr5-GFP; also recorded: didn't increase Lgr5-GFP expression

Q: And the “cell proliferation, effect of addition” value [1]?
A: promotes the proliferation of Lgr5 inner ear progenitor cells

Q: With `CCOC(=O)C1=C(N)Oc2ccc(Cl)cc2C1C(C#N)C(=O)OCC` (stereo not shown) [SC79] as the molecule, how does the “Lgr5-GFP expression, effect of addition” value [1] read?
A: does not promote the expression of Lgr5-GFP

Q: For `CN1CCc2c(c3ccccc3n2Cc2ccc(C(=O)NO)cc2)C1` [Tubastatin A], which “use in place of VPA” value [1] is on record?
A: does not work

Q: With `CNC(=O)c1ccc(C)c(-n2c(C)cc(OCc3ccc(F)cc3F)c(Br)c2=O)c1` [PH797804] as the molecule, how does the “Lgr5-GFP expression, effect of addition” value [1] read?
A: does not promote the expression of Lgr5-GFP

Q: For `O=C(NOC[C@H](O)CO)c1ccc(F)c(F)c1Nc1ccc(I)cc1F` [PD0325901], which “Lgr5-GFP expression, effect of addition” value [1] is on record?
A: does not promote the expression of Lgr5-GFP

Q: Which “Lgr5-GFP expression, effect of addition” value [1] does the source give for `Nc1ncnc2c1c(I)cn2[C@@H]1O[C@H](CO)[C@@H](O)[C@H]1O` [5IT] here?
A: does not promote the expression of Lgr5-GFP

Q: For `CC(C)(C)OC(=O)Nc1ccc(-c2cc(C(=O)NCCCCCCC(=O)NO)no2)cc1` [CAY10603], which “use in place of VPA” value [1] is on record?
A: does not work

Q: For `Cc1cc(NC(=O)c2cccc(NC(=O)/C=C/CN(C)C)c2)ccc1Nc1nccc(-c2cccnc2)n1` [JNK-IN8], which “Lgr5-GFP expression, effect of addition” value [1] is on record?
A: does not promote the expression of Lgr5-GFP

Q: With “EGF: epidermal growth factor (NSDSECPLSHDGYCLHDGVCMYIEALDKYACNCVVGYIGERCQYRDLKWWELR; UniProt P01133 971-1023, looked up)” as the molecule, how does the “effect on differentiation of hair cells” value [2] read?
A: inhibit the differentiation of hair cells

Q: What about the “importance of the factor for Lgr5-GFP expression” value [1] of the same molecule?
A: less important for GFP expression

Q: What about the “importance of the factor for cell proliferation” value [1] of the same molecule?
A: important for cell proliferation; also recorded: greater impact on cell proliferation; also recorded: significant reduction in proliferation; also recorded: important to promote cell proliferation

Q: What about the “decrease of GFP+ cell number” value [1, 3] of the same molecule?
A: ~2 fold

Q: What about the “decrease of total cell number” value [1, 3] of the same molecule?
A: ~2 fold

Q: For `N.N.[Cl][Pt][Cl]` [Cisplatin], which “high frequency hearing loss (>8 kHZ)” value (patients; human, in vivo) is on record?
A: ≤ 90%

Q: For `O=c1ncn2nc(Sc3ccc(F)cc3F)ccc2c1-c1c(Cl)cccc1Cl` [VX745], which “Lgr5-GFP expression, effect of addition” value [1] is on record?
A: does not promote the expression of Lgr5-GFP

Q: Which “Lgr5-GFP expression, effect of addition” value [1] does the source give for `C[C@@H]1CCN(C(=O)CC#N)C[C@@H]1N(C)c1ncnc2[nH]ccc12` [Tofacitinib] here?
A: does not promote the expression of Lgr5-GFP

Q: With `Cc1ccc2nc(NC(=O)CSc3nc4c(c(=O)n3-c3ccccc3)SCC4)sc2c1` [IWP-2] as the molecule, how does the “hair cell generation (Myosin VIIA and Prestin staining)” value ([2]; 10 days of differentiation) read?
A: hair cell generation is rarely observed from cultured inner ear progenitor cells

Q: For `c1ccc2c(-c3cnn4cc(-c5ccc(N6CCNCC6)cc5)cnc34)ccnc2c1` [LDN193189], which “Lgr5-GFP expression, effect of addition” value [1] is on record?
A: does not promote the expression of Lgr5-GFP; also recorded: greatly decreased Lgr5-GFP expression

Q: With bFGF: basic fibroblast growth factor as the molecule, how does the “effect on differentiation of hair cells” value [2] read?
A: inhibit the differentiation of hair cells

Q: And the “importance of the factor for Lgr5-GFP expression” value [1]?
A: less important for GFP expression; also recorded: important for GFP expression

Q: And the “importance of the factor for cell proliferation” value [1]?
A: important for cell proliferation; also recorded: greatly impacted cell proliferation; also recorded: greatest effect on proliferation; also recorded: important to promote cell proliferation

Q: And the “GFP+ cell number” value [1]?
A: 1.4×10^4 cells

Q: What about the “GFP+ percentage” value [1] of the same molecule?
A: 32%

Q: What about the “decrease of GFP+ cell number” value [1, 3] of the same molecule?
A: 20 fold

Q: What about the “decrease of GFP+ percentage” value [1, 3] of the same molecule?
A: ~2 fold

Q: What about the “decrease of total cell number” value [1, 3] of the same molecule?
A: 10 fold

Q: And the “cell proliferation, effect of addition” value [1]?
A: promotes the proliferation of Lgr5 inner ear progenitor cells; also recorded: increased cell proliferation

Q: For `[H]/N=C(/N)N[C@H]1[C@H](O)[C@@H](O)[C@H](O[C@@H]2O[C@@H](C)[C@](O)(C=O)[C@H]2O[C@@H]2O[C@@H](CO)[C@H](O)[C@@H](O)[C@@H]2NC)[C@@H](N/C(N)=N\[H])[C@@H]1O` [streptomycin], which “incidence of vestibular impairment” value (patients; 1 gram per day) is on record?
A: 25%

Q: What about the “patients with some vestibular impairment” value (patients; 2 grams daily for 60 to 120 days) of the same molecule?
A: ~75%

Q: Which “Lgr5-GFP expression, effect of addition” value [1] does the source give for `CO[C@@H]1[C@H](N(C)C(=O)c2ccccc2)C[C@H]2O[C@]1(C)n1c3ccccc3c3c4c(c5c6ccccc6n2c5c31)C(=O)NC4` [PKC412] here?
A: does not promote the expression of Lgr5-GFP

Q: For `O=C(CCCCCCNC(=O)c1cnc(N(c2ccccc2)c2ccccc2)nc1)NO` [ACY1215], which “use in place of VPA” value [1] is on record?
A: does not work

Q: For `Cc1cc(N2CCOCC2)cc2[nH]c(-c3c(NC[C@@H](O)c4cccc(Cl)c4)cc[nH]c3=O)nc12` [BMS536924], which “Lgr5-GFP expression, effect of addition” value [1] is on record?
A: does not promote the expression of Lgr5-GFP

Q: Which “effect on differentiation of hair cells” value [2] does the source give for IGF-1: insulin like growth factor 1 here?
A: inhibit the differentiation of hair cells

Q: What about the “importance of the factor for Lgr5-GFP expression” value [1] of the same molecule?
A: marginal effect on cell proliferation or GFP maintenance

Q: What about the “importance of the factor for cell proliferation” value [1] of the same molecule?
A: marginal effect on cell proliferation or GFP maintenance; also recorded: marginal effect to promote cell proliferation

Q: And the “importance of the factor for Lgr5-GFP expression” value ([1]; listed as IGF)?
A: marginal beneficial effect in promoting cell proliferation and GFP expression

Q: What about the “importance of the factor for cell proliferation” value ([1]; listed as IGF) of the same molecule?
A: marginal beneficial effect in promoting cell proliferation and GFP expression

Q: And the “importance of the factor for Lgr5-GFP expression” value ([1]; listed as IGF1)?
A: marginal beneficial effect on cell proliferation and Lgr5 expression

Q: And the “importance of the factor for cell proliferation” value ([1]; listed as IGF1)?
A: marginal beneficial effect on cell proliferation and Lgr5 expression

Q: And the “GFP+ percentage” value [1]?
A: 53%

Q: And the “total number of cells” value [1]?
A: 4.1×10^5 cells
